In experiment [1] the test system is soluble TRAIL trimers. Put plainly: immunoblot densitometry of soluble TRAIL trimer in culture supernatant. It is filed as cell-based, human. The conditions noted are these: PrE and prostate cancer cell lines treated with cathepsin E. The protocol: The SDS-PAGE and immunoblot analyses were carried out according to prior art literature (Reference #63). The protein fractioned by SDS-PAGE was migrated on nitrocellulose membrane and was blocked with 5% non-fat dried milk. Then, the nitrocellulose membrane was incubated overnight at 4° C. with a primary antibody, i.e., anti-TRAIL antibody (1/300-fold dilution), anti-TNF-α antibody (1/200-fold dilution), anti-FasL antibody (1/500-fold dilution), anti-DR4 antibody (1/500-fold dilution), anti-DR5 antibody (1/100-fold dilution), anti-DcR1 antibody (1/500-fold dilution), anti-DcR2 antibody (1/500-fold dilution), anti-osteoprotegrin (1/150-fold dilution) or anti-β-actin antibody (1/500-fold dilution). […] The resulting membrane was then washed several times and an immunocomplex was detected with a chemiluminescent reagent. The measurement for density was measured with LAS 1000 analyzer.
(§1) In this assay, the cells to be tested were incubated to a ˜80% confluent state and then together with cathepsin E (100 μg/ml) or physiological saline at 37° C. and pH 7.4 for 20 hours, followed by measurements for the cell survival rate by a colorimetric assay. […] As an alternative method, a culture medium of each cell line was immunoblot-analyzed using an anti-OPG antibody. […] Thereafter, the immunoblot was analyzed for its concentration in order to determine a quantity of a soluble TRAIL trimer. […]
(In general: Immunoblotting shows a protein as a band on a membrane.)

Experiment [2] concerns various human prostate cancer cell lines. The experiment can be described thus: sensitivity of human prostate cancer cell lines to cathepsin E-induced apoptosis. It is filed as cell-based. The protocol: (§2) The survival rate of cells was measured by Cell Counting Kit-8 in accordance with a manufacturer's manual. The method will be described briefly as follows. A 96-well (each 100 μl) plate was inoculated with cells (1×10^4 cells) and incubated for 24 hours, and the cells were incubated in a non-serum culture medium Opti-MEM together with a given concentration of each cathepsin purified from rat stomach (References #27 and #60-#62). Thereafter, the kit reagent (10 μl) was added to each well and the wells were incubated for another 1 hour. After incubation, each well was measured at the absorbance of 450 nm with a microplate reader.
In this assay, the cells to be tested were incubated to a ˜80% confluent state and then together with cathepsin E (100 μg/ml) or physiological saline at 37° C. and pH 7.4 for 20 hours, followed by measurements for the cell survival rate by a colorimetric assay. The cell survival rate is represented as a percentage of a corresponding value to the cells treated with physiological saline, and the data is represented as an average value±SD from the data obtained by four separate experiments. In this value, *p<0.001 represents a corresponding value to the cells treated with physiological saline. […] In this experiment, the cells were biotinylated with sulfo-NHS-SS-biotin as a […], decomposable reagent and lyzed, and the resulting cell lysate was incubated with streptoavidin-agarose beads at 4° C. for 2 hours. After the beads were washed, the related proteins were subjected to an immunoblot analysis using an anti-TRAIL antibody or an antibody to a TRAIL membrane-related receptor. The cell lysate portion was also subjected to a direct immunoblot analysis using an anti-β-actin antibody. As an alternative method, a culture medium of each cell line was immunoblot-analyzed using an anti-OPG antibody. […] Thereafter, the immunoblot was analyzed for its concentration in order to determine a quantity of a soluble TRAIL trimer. […]

For experiment [3], the system named is FasL. Put plainly: ELISA of FasL in culture supernatant of ALVA-41 cells. It is filed as cell-based, human. The conditions noted are these: ALVA-41 cells treated with cathepsin E 100 μg/ml, 20 hours. The protocol: ALVA-41 cells (1×10^6 cells per a 6-cm dish) were incubated together with cathepsin E (100 μg/ml) in a non-serum culture medium Opti-MEM at 37° C. for 20 hours. The resulting culture supernatant was measured for amounts of TRAIL, FasL and TNF-α with ELSA kit in a manner as will be described briefly. A sample and a standard product (each 100 μl) were added to a microtiter plate immobilized with a monoclonal antibody to the corresponding member of the TNF family and incubated at room temperature for 2 hours. Then, the wells of the microtiter plate were washed four times with a washing buffer and 100 μl of biotin-conjugated monoclonal antibody was added to each wells of the plate, following by incubation at room temperature for 1 hour and washing the wells of the plate completely. Then, they were incubated together with 100 μl of streptoavidin-conjugated horseradish peroxidase at room temperature for 30 minutes and washed four times with a washing buffer. […] After an addition of a reaction terminating solution, the wells were measured at 450 nm with microreader.
In this experiment, the ALVA-41 cells were treated with cathepsin E (100 μg/ml) or physiological saline at 37° C. and pH 7.4 for 20 hours and measured for the amounts of TNF-α, FasL and TRAIL in the culture supernatant by ELSA. […] Apoptosis of the ALVA-41 cells was measured using the culture supernatant after immunoprecipitation. […]
In general terms: In an ELISA, binding on a coated surface is turned into a signal by an enzyme label.

Experiment [4] has as its system human prostate epithelium (PrE) cells. The experiment can be described thus: cell survival rate of normal human prostate epithelial cells. The conditions noted are these: 100 μg/ml, 37° C., pH 7.4, 20 hours. It is filed as cell-based. As for the experimental part: as §2
as §1, with “assay. The cell survival rate is represented as a percentage of a corresponding value to the cells treated with physiological saline, and the data is represented as an average value±SD from the data obtained by four separate experiments.” for “assay.”

For the substance cathepsin E, in experiment [1], the “order of increasing amounts of soluble TRAIL trimers secreted by treatment” value is recorded as “PrE<PC-3<PPC-1<ALVA-101≦DU145<ALVA-41”. Further, the “induction of apoptosis in human prostate cancer cell lines” value in experiment [2] (100 μg/ml, 37° C., pH 7.4, 20 hours) is “induced apoptosis for all cells”. In addition, in experiment [2] (PC-3 versus PPC-1), the “sensitivity as to cell survival effect, PC-3 cells relative to PPC-1 cells” value is “approximately 20 times”. In experiment [2] (PPC-1, DU145, ALVA-41, PC-3), the “order of increasing sensitivity of cell lines to cathepsin E-induced apoptosis” value is recorded as “PPC-1<DU145≦ALVA-41<PC-3”. In addition, the “FasL in culture supernatant” value in experiment [3] is reported as “little detected”. The “influence upon survival and morphology of normal PrE cells” value in experiment [4] is “little exerted influences upon the survival and morphology”.

The values above are taken from patent US20100047227A1, “NOVEL ANTICANCER CATHEPSIN FORMULATIONS AND ANTICANCER AGENT FOR USE IN COMBINED ANTICANCER THERAPY” (priority 2006, published 2010).
